Reference: patent publication US11926612B2, “Heterocyclic apelin receptor (APJ) agonists and uses thereof” (Research Triangle Institute, priority 2016, dated 2024)

Key:
apelin receptor (APJ) = biological target: T1, apelin receptor (APJ) (Homo sapiens, UniProt P35414); assay: in vitro activity as apelin agonists (methods of Giddings et al.; Apelin-13 positive control); format: cell-based; conditions: apelin agonist activity, average; read-out: EC50 (nM) Ave
T1 sequence (P35414 1-380): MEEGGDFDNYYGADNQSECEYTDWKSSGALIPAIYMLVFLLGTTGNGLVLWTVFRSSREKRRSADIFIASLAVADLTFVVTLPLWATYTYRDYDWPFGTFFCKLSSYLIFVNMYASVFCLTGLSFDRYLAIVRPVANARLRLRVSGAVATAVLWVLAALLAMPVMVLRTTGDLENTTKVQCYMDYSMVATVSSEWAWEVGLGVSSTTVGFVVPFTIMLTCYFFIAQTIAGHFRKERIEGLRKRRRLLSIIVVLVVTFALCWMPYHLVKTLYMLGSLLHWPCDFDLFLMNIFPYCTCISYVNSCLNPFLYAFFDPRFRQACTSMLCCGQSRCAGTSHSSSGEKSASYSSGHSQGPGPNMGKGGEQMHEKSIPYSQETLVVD
Description: The compounds above were studied for their in vitro activity as apelin agonists using the methods described by Giddings et al. Giddings et al., 2010 Int J High Thro Screen. 1:39-47, the contents of which are hereby incorporated by reference in its entirety. The methods described in Giddings et al. were used as described and Apelin-13 was a positive control.

[1] = Cellular uptake assay: Caco-2 monolayer permeability (A-to-B / B-to-A); format: in vitro ADME; conditions: human, Papp (B-to-A)/Papp (A-to-B), Caco-2, 5 μM, pH 7.4
Protocol: Caco-2 cells (clone C2BBe1) were obtained from American Type Culture Collection (Manassas, VA). Cell monolayers were grown to confluence on collagen-coated, microporous, polycarbonate membranes in 12-well Costar Transwell plates. Details of the plates and their certification are shown below. The permeability assay buffer was Hanks' balanced salt solution (HBSS) containing 10 mM HEPES and 15 mM glucose at a pH of 7.4. The buffer in the receiver chamber also contained 1% bovine serum albumin. The dosing solution concentration was 5 μM for each test article in the assay buffer. Cell monolayers were dosed on the apical side (A-to-B) or basolateral side (B-to-A) and incubated at 37° C. with 5% CO2 in a humidified incubator. Samples were taken from the donor and receiver chambers at 120 minutes. Each determination was performed in duplicate. After the experiment, all assay buffers were removed from the inserts. Cell monolayers were dosed with blank 500 μM lucifer yellow on the A-to-B side and blank HBSS on the B-to-A side and incubated at 37° C. Samples were taken from the B-to-A side at 60 minutes. The flux of lucifer yellow was measured for each monolayer to ensure no damage was inflicted to the cell monolayers during the flux period. All samples were analyzed by LC-MS/MS using electrospray ionization. The apparent permeability (Papp) and percent recovery were calculated as follows: Papp=(dCr/dt)×Vr/(A×CA) (1) Percent Recovery=100×((Vr×Cr^final)+(Vd×Cd^final))/(Vd×CN) (2)
Where, dCr/dt is the slope of the cumulative concentration in the receiver compartment versus time in M s^−1;
Vr is the volume of the receiver compartment in cm^3;
Vd is the volume of the donor compartment in cm^3;
A is the area of the insert (1.13 cm^2 for 12-well Transwell);
CA is the average of the nominal dosing concentration and the measured 120-minute donor concentration in μM;
CN is the nominal concentration of the dosing solution in M;
Cr^final is the cumulative receiver concentration in M at the end of the incubation period;
Cd^final is the concentration of the donor in μM at the end of the incubation period.
Efflux ratio (ER) is defined as Papp (B-to-A)/Papp (A-to-B).
Absorption Potential Classification:
Papp (A-to-B)<1.0×10^−6 cm/s: Low
Papp (A-to-B) ≥1.0×10^−6 cm/s: High
Significant Efflux is defined as: ER≥2.0 and Papp (B-to-A)≥1.0×10^−6 cm/

SMILES	EC50 (apelin receptor (APJ))	efflux ratio at 120 min, 5 μM [1]
O=C(O)C[C@H](CCN1CCCC(F)(F)C1)NC(=O)c1nc(C2CCCC2)n(-c2ccccc2C(F)(F)F)n1 [compound 461, (3S)-3-({5-cyclopentyl-1-[2-(trifluoromethyl)phenyl]-1H-1,2,4-triazol-3-yl}formamido)-5-(3,3-difluoropiperidin-1-yl)pentanoic acid]	46 nM	7
O=C(C[C@H](CCN1CCCC(F)(F)C1)NC(=O)c1cn(-c2ccccc2C(F)(F)F)c(C2CCCC2)n1)NC1CCC1 [compound 472, (3S)-N-cyclobutyl-3-({2-cyclopentyl-1-[2-(trifluoromethyl)phenyl]-1H-imidazol-4-yl}formamido)-5-(3,3-difluoropiperidin-1-yl)pentanamide]	15 nM	4
O=C(C[C@H](CCN1CCCC(F)(F)C1)NC(=O)c1nc(-c2ncccc2C(F)(F)F)n(C2CCCC2)n1)NC1CCC1 [compound 530, (3S)-N-cyclobutyl-3-({1-cyclopentyl-5-[3-(trifluoromethyl)pyridin-2-yl]-1H-1,2,4-triazol-3-yl}formamido)-5-(3,3-difluoropiperidin-1-yl)pentanamide]	7.5 nM	46
O=C(N[C@@H](CCN1CCCC(F)(F)C1)Cc1nnn[nH]1)c1nc(C2CCCC2)n(-c2ccccc2C(F)(F)F)n1 [compound 616, 5-cyclopentyl-N-[(2S)-4-(3,3-difluoropiperidin-1-yl)-1-(1H-1,2,3,4-tetrazol-5-yl)butan-2-yl]-1-[2-(trifluoromethyl)phenyl]-1H-1,2,4-triazole-3-carboxamide]	9 nM	17
